Legend:
[1] = system: S. hermonthica seeds; assay: Germination assay using S. hermonthica seeds; assay type: in vivo, Striga hermonthica; details: positive control, 10^−7 M (FIG. 2f)
Source text: The levels of strigolactones released to hydroponic culture media were estimated by germination stimulating activity using S. hermonthica seeds as described previously ^32 Strigolactones were identified and quantified on LC-MS/MS by comparing the retention time and full-scan spectrum with those of authentic standards. We synthesized deuterium-labeled epi-5DS (d1-epi-5DS) and used as an internal standard for quantitative analysis using LC-MS/MS. Germination assays using S. hermonthica were performed as described previously^32 For each bioassay, de-ionized water and (+)-strigol solution were used as negative and positive controls, respectively.

[2] = system: tiller bud outgrowth of rice
Procedure: Rice and Arabidopsis seeds were surface-sterilized and the seedlings were first grown aseptically on agar media. Plants were then grown hydroponically in growth chambers. For both rice and Arabidopsis, strigolactones were added to the hydroponic culture medium.
We used rice normal cultivars (Oryza sativa L. cv. Shiokari and cv. Nipponbare) and tillering dwarf mutants (FIG. 6) in this study. Rice seeds were washed in 70% ethanol for 30 sec, sterilized in 2.5% sodium hypochlorite solution for 15 min, rinsed with sterile water, and then imbibed at 28° C. in the dark for 2 days. Germinated seeds were transferred into hydroponic culture media^39 solidified with 0.6% agar (pH5.7) and cultured at 25° C. under fluorescence white light (150-200 μmol m^−2 s^−1) with a 16 h light/8 h dark photoperiod for 5 days. Each seedling was then transferred to a glass vial containing a sterilized hydroponic culture solution (13 ml), fixed with a piece of sponge at the root-shoot junction to the top of the vial, and grown under the same condition for additional 7 days (total 2 weeks). The hydroponic solution was supplemented every 3 days. For large-scale cultures, the 2-weeks-old seedlings were transferred into a 4-L porcelain pot containing the same hydroponic solution and grown under the same condition. After the transfer to pots, the solution was renewed weekly.
To further investigate the relationships between the D10/D17-derived branching inhibitor and strigolactones, we examined the effect of strigolactone treatment on rice d mutants.

[3] = system: D10 transcript; assay: qRT-PCR of D10 transcript levels in rice roots; assay type: in vivo, Oryza sativa; details: roots of 8-day-old seedlings, 1 μM (+)-GR24 for 24 h (FIG. 3h)
Procedure: We performed quantitative reverse transcription-PCR (qRT-PCR) to determine D10 transcript levels, according to the method described before^38. Total RNA was extracted from roots using RNeasy Maxi kit (Qiagen). qRT-PCR was carried out to determine D10 transcript levels using gene specific primers and a Taq-Man probe (Table 1 as describe above). Ubiquitin expression was used as an internal standard.

[4] = system: axillary bud outgrowth of Arabidopsis; assay: Axillary bud outgrowth (shoot branching) of Arabidopsis in hydroponic culture; assay type: in vivo, Arabidopsis thaliana; details: 5 μM in the hydroponic culture media
Procedure: Plants were then grown hydroponically in growth chambers. […] We used Arabidopsis thaliana ecotype Col-0 as the wild type and max mutants (FIG. 6). Seeds were sterilized in 1% sodium hypochlorite solution for 5 min, rinsed with sterile water, and stratified for one day at 4° C. […] Plants were then transferred to a glass pot containing 400 ml hydroponic solution^41 and grown under the same environmental condition for additional 15 days. The solution was renewed every 3 days. To measure germination stimulants, sterilized and stratified seeds were placed on glass beads (30 ml) wetted with 1/10 strength MS liquid media (10 ml) in a Petri dish (9 cm diameter) and grown for 14 days under the same conditions above. The culture media were collected and subjected to S. hermonthica germination assay.

CC1=C[C@H](O/C=C2/C(=O)O[C@@H]3C4=C(C[C@H]23)[C@@H](O)CCC4(C)C)OC1=O [(+)-strigol, (+)-Strigol]
germination of S. hermonthica seeds [1]: germination induced

CC1=C[C@H](O/C=C2/C(=O)O[C@@H]3c4ccccc4C[C@H]23)OC1=O [GR24]
tiller bud outgrowth at 1 μM ([2]; 1 μM, 2-week-old d10-1 and d17-1 seedlings): nearly fully inhibited
lowest concentration at which the inhibitory effect on tiller bud outgrowth was detectable ([2]; 2-week-old d10-1 and d17-1 seedlings): 10 nM
inhibition of tiller bud outgrowth ([2]; 2-week-old d10-1 and d17-1 seedlings, compound applied to the media): inhibited tiller bud outgrowth of 2-week-old d10-1 and d17-1 seedlings in a dose-dependent manner
effect on d3-1 mutant plants ([2]; 6-week-old d3-1, 2 μM in the culture media): no visible effect
branching phenotype and plant height of d10-1 mutant ([2]; 6-week-old d10-1, 2 μM in the culture media): complemented
sensitivity of tiller bud outgrowth of the d3-1 mutant ([2]; d3-1 mutant seedlings (defective in probable signaling component)): insensitive
morphological abnormalities in wild type seedlings after treatment ([2]; in vivo): No morphological abnormalities were evident
plant height of wild type seedlings ([2]; in vivo): did not change the plant height
D10 transcript levels in d10-1 and wild type seedlings [3]: decreased
sensitivity of branching of max2 mutants [4]: insensitive
enhanced branching phenotype of max3 and max4 mutants ([4]; 30-day-old plants): rescued

— patent publication US8633356B2, “Method for controlling root parasitic plants” (Riken, priority 2008, dated 2014)
